Results published in patent US20260078103A1, “ISOQUINOLONES AS PI3K INHIBITORS” (OnKure, Inc., priority 2022, published 2026).
Where two headings read alike, the source gives them in different places.

Tests used:
Assay type in all cases: cell-based
[1] = test system: T47D cells expressing mutant PI3Ka (H1047R); test: In vitro cell proliferation, T47D cells (CellTiter-Glo); details: inhibition of proliferation, read-out: Avg T-47D EC50
Method in brief: (§1)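 T47D cells in RPMI/10% FBS/insulin (0.2 units/mL) or SKBR3 in McCoys 5a/10% FBS, 1,500 cells/well, grown 72 h at 37 °C with 10-point compound dilutions. CellTiter-Glo luminescence; % inhibition normalised to 0.1% DMSO and 10 uM Alpelisib, EC50 from four-parameter curve fit.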

[2] = test system: SKBR3 cells express WT PI3Ka; test: In vitro cell proliferation, SKBR3 cells (CellTiter-Glo); details: inhibition of proliferation
Method in brief: as §1

[3] = test system: phosphorylation of AKT (pAKT) in T47D cells expressing mutant PI3Ka (H1047R); test: In vitro cell pAKT (Ser473) HTRF, T47D cells; details: cellular pAKT, T47D cells, mutant PI3Ka (H1047R), 6 hours, read-out: Avg T-47D IC50
Method in brief: (§2)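 Cells seeded on plates pre-stamped with 10-point compound dilutions, then grown 6 h at 37 °C (T47D in RPMI/10% FBS/insulin; SKBR3 in McCoy's 5a/10% FBS). Lysates read for pAKT Ser473 by HTRF after overnight antibody incubation. Inhibition normalised to 0.1% DMSO and 10 uM alpelisib; IC50 by four-parameter fit.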

[4] = test system: phosphorylation of AKT (pAKT) in SKBR3 cells express WT PI3Ka; test: In vitro cell pAKT (Ser473) HTRF, SKBR3 cells; details: cellular pAKT
Method in brief: as §2

| SMILES | EC50 ([1]; 72 hours) [nM] | EC50 ([2]; Homo sapiens, SK-BR-3, 72 h) [nM] | IC50 [3] [nM] | IC50 ([4]; Homo sapiens, SK-BR-3, 6 h) [nM] | EC50 ([2]; 72 hours) [nM] | IC50 ([4]; 6 hours) [nM] | IC50 ([3]; Homo sapiens, T47D, 6 h) [nM] | EC50 ([1]; Homo sapiens, T47D, 72 h) [nM] |
| --- | --- | --- | --- | --- | --- | --- | --- | --- |
| Cc1cc(C(C)Nc2ccccc2C(=O)O)c2cc(N3CC(C)(O)C3)n(C)c(=O)c2c1 (single isomer, unassigned) [Example 181] | > 15000 | > 15000 | > 15000 | > 15000 |  |  |  |  |
| Cc1cc(C(C)Nc2ccccc2C(=O)O)c2cc(N3CC(C)(O)C3)n(C)c(=O)c2c1 (single isomer, unassigned) [Example 182] | 2000 to 15000 |  | 2000 to 15000 |  | > 15000 | > 15000 |  |  |
| COC1(C)CN(c2cc3c(C(C)Nc4ccccc4C(=O)O)cc(C)cc3c(=O)n2C)C1 (single isomer, unassigned) [Example 183] | > 15000 | > 15000 | > 15000 | > 15000 |  |  |  |  |
| Cc1cc([C@@H](C)Nc2ccccc2C(=O)O)c2cc(N3CC4CC3CN4CC(F)(F)F)n(C)c(=O)c2c1 (single isomer, unassigned) [Example 211] | 500 to 2000 | > 15000 |  | > 15000 |  |  | 1 to 500 |  |
| COC1(C)CN(c2cc3c(C(C)Nc4ccccc4C(=O)O)cc(C)cc3c(=O)n2C)C1 (single isomer, unassigned) [Example 213] | 500 to 2000 |  | 1 to 500 |  | > 15000 | > 15000 |  |  |
| Cc1cc([C@@H](C)Nc2ccccc2C(=O)O)c2cc(N3CC4CC3CN4CC(F)(F)F)n(C)c(=O)c2c1 (single isomer, unassigned) [Example 224] | 1 to 500 |  | 1 to 500 |  | > 15000 | > 15000 |  |  |
| CCN1CCN(c2cc3c([C@@H](C)Nc4ccccc4C(=O)O)cc(C)cc3c(=O)n2C)CC1C(F)(F)F (single isomer, unassigned) [Example 266] |  |  |  | > 15000 | > 15000 |  | 1 to 500 | 1 to 500 |
| CCN1CCN(c2cc3c([C@@H](C)Nc4ccccc4C(=O)O)cc(C)cc3c(=O)n2C)CC1C(F)(F)F (single isomer, unassigned) [Example 267] | 1 to 500 |  | 1 to 500 |  | 2000 to 15000 | > 15000 |  |  |
| Cc1cc([C@@H](C)Nc2ccccc2C(=O)O)c2cc(N3CCN(C(C)C(F)(F)F)CC3)n(C)c(=O)c2c1 (single isomer, unassigned) [Example 278] |  | > 15000 |  | > 15000 |  |  | 1 to 500 | 1 to 500 |
| Cc1cc([C@@H](C)Nc2ccccc2C(=O)O)c2cc(N3CCN(C(C)C(F)(F)F)CC3)n(C)c(=O)c2c1 (single isomer, unassigned) [Example 279] | 1 to 500 |  | 1 to 500 |  | > 15000 | > 15000 |  |  |
| Cc1cc([C@@H](C)Nc2ccccc2C(=O)O)c2cc(N3CCN(C)C(C(F)(F)F)C3)n(C)c(=O)c2c1 (single isomer, unassigned) [Example 301] |  | > 15000 |  | > 15000 |  |  | 1 to 500 | 1 to 500 |
| Cc1cc([C@@H](C)Nc2ccccc2C(=O)O)c2cc(N3CCN(C)C(C(F)(F)F)C3)n(C)c(=O)c2c1 (single isomer, unassigned) [Example 302] | 1 to 500 |  | 1 to 500 |  | > 15000 | > 15000 |  |  |
| COC[C@@H]1CC1c1cc2c([C@@H](C)Nc3ccccc3C(=O)O)cc(C)cc2c(=O)n1C (single isomer, unassigned) [Example 308] |  |  |  |  | 2000 to 15000 | 2000 to 15000 | 1 to 500 | 1 to 500 |
| Cc1cc([C@@H](C)Nc2ccccc2C(=O)O)c2cc(C3C[C@H]3C3CC3)n(C)c(=O)c2c1 (single isomer, unassigned) [Example 309] |  | > 15000 |  |  |  | 2000 to 15000 | 1 to 500 | 1 to 500 |
| Cc1cc([C@@H](C)Nc2ccccc2C(=O)O)c2cc(C3C[C@H]3C)n(C)c(=O)c2c1 (single isomer, unassigned) [Example 310] |  |  |  | > 15000 | 2000 to 15000 |  | 1 to 500 | 1 to 500 |
| Cc1cc([C@@H](C)Nc2ccccc2C(=O)O)c2cc(C3C[C@H]3C(C)C)n(C)c(=O)c2c1 (single isomer, unassigned) [Example 311] |  |  |  | > 15000 | > 15000 |  | 1 to 500 | 1 to 500 |
| Cc1cc([C@@H](C)Nc2ccccc2C(=O)O)c2cc(C3C[C@H]3C(C)C)n(C)c(=O)c2c1 (single isomer, unassigned) [Example 312] | 1 to 500 |  | 1 to 500 |  | 2000 to 15000 | > 15000 |  |  |
| Cc1cc([C@@H](C)Nc2ccccc2C(=O)O)c2cc(C3C[C@H]3C)n(C)c(=O)c2c1 (single isomer, unassigned) [Example 313] | 1 to 500 |  | 1 to 500 |  | > 15000 | > 15000 |  |  |
| COC[C@@H]1CC1c1cc2c([C@@H](C)Nc3ccccc3C(=O)O)cc(C)cc2c(=O)n1C (single isomer, unassigned) [Example 314] | 1 to 500 |  | 1 to 500 |  | > 15000 | > 15000 |  |  |
| Cc1cc([C@@H](C)Nc2ccccc2C(=O)O)c2cc(C3C[C@H]3C3CC3)n(C)c(=O)c2c1 (single isomer, unassigned) [Example 315] | 1 to 500 |  | 1 to 500 |  | > 15000 | > 15000 |  |  |
| Cc1cc([C@@H](C)Nc2cccc(F)c2C(=O)O)c2cc(C3C[C@H]3C)n(C)c(=O)c2c1 (single isomer, unassigned) [Example 355] |  | > 15000 |  | > 15000 |  |  | 1 to 500 | 1 to 500 |
| Cc1cc([C@@H](C)Nc2cccc(F)c2C(=O)O)c2cc(C3C[C@H]3C)n(C)c(=O)c2c1 (single isomer, unassigned) [Example 356] | 1 to 500 |  | 1 to 500 |  | > 15000 | > 15000 |  |  |
| Cc1cc(C(C)Nc2ccccc2C(=O)O)c2c(F)c(C3=CCN(CC(F)(F)F)CC3)n(C)c(=O)c2c1 (single isomer, unassigned) [Example 359] | 1 to 500 |  | 1 to 500 |  | > 15000 | > 15000 |  |  |
| Cc1cc(C(C)Nc2ccccc2C(=O)O)c2c(F)c(C3=CCN(CC(F)(F)F)CC3)n(C)c(=O)c2c1 (single isomer, unassigned) [Example 360] | 2000 to 15000 |  | > 15000 |  | > 15000 | > 15000 |  |  |
| Cc1cc([C@@H](C)Nc2ccccc2C(=O)O)c2cc([C@H]3C[C@@H]3C(C)(C)O)n(C)c(=O)c2c1 (single isomer, unassigned) [Example 373] |  | > 15000 |  | > 15000 |  |  | 1 to 500 | 1 to 500 |
| Cc1cc([C@@H](C)Nc2ccccc2C(=O)O)c2cc([C@H]3C[C@@H]3C(C)(C)O)n(C)c(=O)c2c1 (single isomer, unassigned) [Example 374] | 1 to 500 |  | 1 to 500 |  | > 15000 | > 15000 |  |  |
| Cc1cc([C@@H](C)Nc2ccccc2C(=O)O)c2cc(C3CC3(F)F)n(C)c(=O)c2c1 (single isomer, unassigned) [Example 384] |  | > 15000 |  | > 15000 |  |  | 1 to 500 | 1 to 500 |
| Cc1cc([C@@H](C)Nc2ccccc2C(=O)O)c2cc(C3CC3(F)F)n(C)c(=O)c2c1 (single isomer, unassigned) [Example 385] | 1 to 500 |  | 1 to 500 |  | > 15000 | > 15000 |  |  |
